pIC50: −log10 of the molar value.
Biological target: T1, human S1P1 receptors (Homo sapiens, UniProt P21453)
T1 construct: host or cells: HEK293
Test: S1P1R antagonist assay (fluorescent membrane potential dye, cAMP readout)
Type: cell-based
Conditions: HEK293 cells expressing human S1P1 receptors and CNG channel; 500 nM NECA; S1P1R agonist 10 nM; 90 minutes; read-out: EC50 or IC50 value

T1 sequence (P21453 whole entry): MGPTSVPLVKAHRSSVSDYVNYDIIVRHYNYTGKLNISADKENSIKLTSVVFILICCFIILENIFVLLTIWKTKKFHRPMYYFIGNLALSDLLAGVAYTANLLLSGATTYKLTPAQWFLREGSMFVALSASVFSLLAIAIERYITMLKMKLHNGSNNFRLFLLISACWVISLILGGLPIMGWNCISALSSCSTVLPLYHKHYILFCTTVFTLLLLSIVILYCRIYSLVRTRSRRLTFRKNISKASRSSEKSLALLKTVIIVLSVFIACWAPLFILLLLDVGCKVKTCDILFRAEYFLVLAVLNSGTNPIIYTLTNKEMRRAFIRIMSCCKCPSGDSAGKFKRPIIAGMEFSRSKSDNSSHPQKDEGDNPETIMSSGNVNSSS

Question: `O=C(Cn1ccnn1)N[C@@H](COCc1ccccc1)C(=O)Nc1ccc(Oc2ccc(F)cc2)cc1` [Compound 174, (S)-2-(2-(1H-1,2,3-triazol-1-yl)acetamido)-3-(benzyloxy)-N-(4-(4-fluorophenoxy)phenyl)propanamide] was tested. Which pIC50 did it give?
Answer: ≥ 6.52

Question: How did the pIC50 turn out when `O=C(Nc1ccc(Oc2ccc(F)cc2)cc1)[C@@H]1CN(Cc2ccccc2)CCN1C(=O)Cc1cnc[nH]1` [Compound 175, (S)-1-(2-(1H-imidazol-4-yl)acetyl)-4-benzyl-N-(4-(4-fluorophenoxy)phenyl)piperazine-2-carboxamide] was run?
Answer: ≥ 6.52

Question: With `O=C(Nc1ccc(Oc2ccc(F)cc2)cc1)[C@@H]1C[C@@H](Cc2ccccc2)CN1C(=O)Cn1nnc2ccccc21` [Compound 176, (2S,4R)-1-(2-(1H-benzo[d][1,2,3]triazol-1-yl)acetyl)-4-benzyl-N-(4-(4-fluorophenoxy)phenyl)pyrrolidine-2-carboxamide] as the compound, how does the pIC50 read?
Answer: ≥ 6.52

Question: How did the pIC50 turn out when `Cc1cc(CC(=O)N2C[C@H](Cc3ccccc3)C[C@H]2C(=O)Nc2ccc(Oc3ccc(F)cc3)cc2)n[nH]1` [Compound 177, (2S,4R)-4-benzyl-N-(4-(4-fluorophenoxy)phenyl)-1-(2-(5-methyl-1H-pyrazol-3-yl)acetyl)pyrrolidine-2-carboxamide] was run?
Answer: ≥ 6.52

Question: `O=C(Cn1cncn1)N[C@@H](COCc1ccccc1)C(=O)Nc1ccc(Sc2ccc(F)cc2)cc1` [Compound 178, (S)-2-(2-(1H-1,2,4-triazol-1-yl)acetamido)-3-(benzyloxy)-N-(4-(4-fluorophenylthio)phenyl)propanamide] was tested. Which pIC50 did it give?
Answer: ≥ 6.52

Question: `O=C(Nc1ccc(Oc2ccc(F)cc2)cc1)[C@@H]1C[C@@H](NCc2ccccc2)CN1C(=O)Cn1cncn1` [Compound 179, (2S,4R)-1-(2-(1H-1,2,4-triazol-1-yl)acetyl)-4-(benzylamino)-N-(4-(4-fluorophenoxy)phenyl)pyrrolidine-2-carboxamide] was tested. Which pIC50 did it give?
Answer: ≥ 6.52

Question: How did the pIC50 turn out when `O=C(Nc1ccc(Oc2ccc(F)cc2)cc1)[C@@H]1C[C@@H](Cc2ccc(Cl)cc2Cl)CN1C(=O)Cn1cncn1` [Compound 180, (2S,4R)-1-(2-(1H-1,2,4-triazol-1-yl)acetyl)-4-(2,4-dichlorobenzyl)-N-(4-(4-fluorophenoxy)phenyl)pyrrolidine-2-carboxamide] was run?
Answer: ≥ 6.52

Question: `O=C(Cn1cncn1)N[C@@H](COCc1ccccc1Cl)C(=O)Nc1ccc(Oc2ccc(F)cc2)cc1` [Compound 181, (S)-2-(2-(1H-1,2,4-triazol-1-yl)acetamido)-3-(2-chlorobenzyloxy)-N-(4-(4-fluorophenoxy)phenyl)propanamide] was tested. Which pIC50 did it give?
Answer: ≥ 6.52

Question: How did the pIC50 turn out when `O=C(Nc1ccc(Oc2ccc(F)cc2)cc1)[C@@H]1C[C@@H](NCc2ccsc2)CN1C(=O)Cn1cncn1` [Compound 182, (2S,4R)-1-(2-(1H-1,2,4-triazol-1-yl)acetyl)-N-(4-(4-fluorophenoxy)phenyl)-4-(thien-3-ylmethylamino)pyrrolidine-2-carboxamide] was run?
Answer: ≥ 6.52

Question: `O=C(Cc1ccccc1F)NC(COCc1ccccc1)C(=O)Nc1ccc(Oc2ccccc2)cc1` (centres unmarked) [Compound 183, 3-(benzyloxy)-2-(2-(2-fluorophenyl)acetamido)-N-(4-phenoxyphenyl)propanamide] was tested. Which pIC50 did it give?
Answer: 6.00 to 6.52

Question: With `O=C(NC(COCc1ccccc1)C(=O)Nc1ccc(Oc2ccccc2)cc1)c1cccc2[nH]ccc12` (centres unmarked) [Compound 184, N-(3-(benzyloxy)-1-oxo-1-(4-phenoxyphenylamino)propan-2-yl)-1H-indole-4-carboxamide] as the compound, how does the pIC50 read?
Answer: 6.00 to 6.52

Question: With `Cc1cc(CC(=O)NC(COCc2ccccc2)C(=O)Nc2ccc(Oc3ccccc3)cc2)on1` (centres unmarked) [Compound 185, 2-(2-(3-methylisoxazol-5-yl)acetamido)-3-benzyloxy-N-(4-phenoxyphenyl)propanamide] as the compound, how does the pIC50 read?
Answer: ≥ 6.52

Question: `O=C(CCC(=O)C1CC1)NC(COCc1ccccc1)C(=O)Nc1ccc(Oc2ccccc2)cc1` (centres unmarked) [Compound 186, N-(3-(benzyloxy)-1-oxo-1-(4-phenoxyphenylamino)propan-2-yl)-4-cyclopropyl-4-oxobutanamide] was tested. Which pIC50 did it give?
Answer: 6.00 to 6.52

Question: `O=C(NC(COCc1ccccc1)C(=O)Nc1ccc(Oc2ccccc2)cc1)c1ccc2cc[nH]c2c1` (centres unmarked) [Compound 187, N-(3-(benzyloxy)-1-oxo-1-(4-phenoxyphenylamino)propan-2-yl)-1H-indole-6-carboxamide] was tested. Which pIC50 did it give?
Answer: 6.00 to 6.52

Question: How did the pIC50 turn out when `O=C(NC(COCc1ccccc1)C(=O)Nc1ccc(Oc2ccccc2)cc1)C1Cc2ccccc2C1` (centres unmarked) [Compound 188, N-(3-(benzyloxy)-1-oxo-1-(4-phenoxyphenylamino)propan-2-yl)-2,3-dihydro-1H-indene-2-carboxamide] was run?
Answer: 6.00 to 6.52

Question: `Cc1cccc(C(=O)NC(COCc2ccccc2)C(=O)Nc2ccc(Oc3ccccc3)cc2)c1[N+](=O)[O-]` (centres unmarked) [Compound 189, N-(3-(benzyloxy)-1-oxo-1-(4-phenoxyphenylamino)propan-2-yl)-3-methyl-2-nitrobenzamide] was tested. Which pIC50 did it give?
Answer: 6.00 to 6.52

Question: `O=C(Cc1cc(Cl)ccc1Cl)NC(COCc1ccccc1)C(=O)Nc1ccc(Oc2ccccc2)cc1` (centres unmarked) [Compound 190, 3-(benzyloxy)-2-(2-(2,5-dichlorophenyl)acetamido)-N-(4-phenoxyphenyl)propanamide] was tested. Which pIC50 did it give?
Answer: 6.00 to 6.52

Question: With `O=C(Cc1cccc(Cl)c1F)NC(COCc1ccccc1)C(=O)Nc1ccc(Oc2ccccc2)cc1` (centres unmarked) [Compound 191, 3-(benzyloxy)-2-(2-(3-chloro-2-fluorophenyl)acetamido)-N-(4-phenoxyphenyl)propanamide] as the compound, how does the pIC50 read?
Answer: 6.00 to 6.52

Question: How did the pIC50 turn out when `O=C(Cc1cc(Cl)ccc1F)NC(COCc1ccccc1)C(=O)Nc1ccc(Oc2ccccc2)cc1` (centres unmarked) [Compound 192, 3-(benzyloxy)-2-(2-(5-chloro-2-fluorophenyl)acetamido)-N-(4-phenoxyphenyl)propanamide] was run?
Answer: 6.00 to 6.52

Question: How did the pIC50 turn out when `CN(CC(=O)N[C@@H](COCc1ccccc1)C(=O)Nc1ccc(Oc2ccccc2)cc1)C(=O)c1ccccc1` [Compound 194, (S)-2-{2-((benzoyl)(methyl)amino)acetamido}-3-benzyloxy-N-(4-phenoxyphenyl)propanamide] was run?
Answer: 6.00 to 6.52

Question: `Cn1cnc(CC(=O)N[C@@H](COCc2ccccc2)C(=O)Nc2ccc(Oc3ccccc3)cc2)c1` [Compound 195, (S)-2-(2-(1-methyl-1H-imidazol-4-yl)acetamido)-3-benzyloxy-N-(4-phenoxyphenyl)propanamide] was tested. Which pIC50 did it give?
Answer: ≥ 6.52

Question: How did the pIC50 turn out when `O=C(Cc1ccccc1F)N[C@@H](COCc1ccccc1)C(=O)Nc1ccc(Oc2ccccc2)cc1` [Compound 196, (S)-2-(2-(2-fluorophenyl)acetamido)-3-benzyloxy-N-(4-phenoxyphenyl)propanamide] was run?
Answer: 6.00 to 6.52

Question: How did the pIC50 turn out when `O=C(Cc1cccs1)N[C@@H](COCc1ccccc1)C(=O)Nc1ccc(Oc2ccccc2)cc1` [Compound 198, (S)-2-(2-(thien-2-yl)acetamido)-3-benzyloxy-N-(4-phenoxyphenyl)propanamide] was run?
Answer: 6.00 to 6.52

Question: `O=C(Cc1cc(Cl)ccc1Cl)N[C@@H](COCc1ccccc1)C(=O)Nc1ccc(Oc2ccccc2)cc1` [Compound 199, (S)-2-(2-(2,5-dichlorophenyl)acetamido)-3-benzyloxy-N-(4-phenoxyphenyl)propanamide] was tested. Which pIC50 did it give?
Answer: 6.00 to 6.52

Question: `O=C(Cc1cnc[nH]1)N[C@@H](COCc1ccccc1)C(=O)Nc1ccc(Cc2ccccc2)cc1` [Compound 200, (S)-2-(2-(1H-imidazol-4-yl)acetamido)-3-(benzyloxy)-N-(4-benzylphenyl)propanamide] was tested. Which pIC50 did it give?
Answer: ≥ 6.52

Question: With `COc1ccc(Oc2ccc(NC(=O)[C@H](COCc3ccccc3)NC(=O)Cc3c[nH]cn3)cc2)cc1` [Compound 202, (S)-2-(2-(1H-imidazol-4-yl)acetamido)-3-(benzyloxy)-N-(4-(4-methoxyphenoxy)phenyl)propanamide] as the compound, how does the pIC50 read?
Answer: ≥ 6.52

Question: With `CN(C(=O)Cc1c[nH]cn1)[C@@H](COCc1ccccc1)C(=O)Nc1ccc(Oc2ccccc2)cc1` [Compound 203, (S)-2-(2-(1H-imidazol-4-yl)-N-methylacetamido)-3-(benzyloxy)-N-(4-phenoxyphenyl)propanamide] as the compound, how does the pIC50 read?
Answer: ≥ 6.52

Question: With `O=C(Cc1cnc[nH]1)N[C@@H](Cc1ccccc1)C(=O)Nc1ccc(Oc2ccc(Cl)cc2)cc1` [Compound 204, (S)-2-(2-(1H-imidazol-5-yl)acetamido)-N-(4-(4-chlorophenoxy)phenyl)-3-phenylpropanamide] as the compound, how does the pIC50 read?
Answer: 6.00 to 6.52

Question: With `O=C(CN1CCNCC1)N[C@@H](COCc1ccccc1)C(=O)Nc1ccc(Oc2ccc(F)cc2)cc1` [Compound 205, (S)-3-(benzyloxy)-N-(4-(4-fluorophenoxy)phenyl)-2-(2-(piperazin-1-yl)acetamido)propanamide] as the compound, how does the pIC50 read?
Answer: ≥ 6.52

Question: How did the pIC50 turn out when `O=C(Cc1c[nH]cn1)N[C@@H](COCc1ccccc1)C(=O)Nc1ccc(Oc2nccs2)cc1` [Compound 206, (S)-2-(2-(1H-imidazol-4-yl)acetamido)-3-(benzyloxy)-N-(4-(thiazol-2-yloxy)phenyl)propanamide] was run?
Answer: 6.00 to 6.52

Question: With `O=C(CCc1cnc[nH]1)N[C@@H](COCc1ccccc1)C(=O)Nc1ccc(Oc2ccc(F)cc2)cc1` [Compound 207, (S)-2-(3-(1H-imidazol-5-yl)propanamido)-3-(benzyloxy)-N-(4-(4-fluorophenoxy)phenyl)propanamide] as the compound, how does the pIC50 read?
Answer: ≥ 6.52

Question: With `O=C(Cc1cnc[nH]1)N[C@@H](COCc1ccccc1)C(=O)Nc1ccc(OC2CCCCC2)cc1` [Compound 208, (S)-2-(2-(1H-imidazol-5-yl)acetamido)-3-(benzyloxy)-N-(4-(cyclohexyloxy)phenyl)propanamide] as the compound, how does the pIC50 read?
Answer: 6.00 to 6.52

Question: How did the pIC50 turn out when `CN(C)CCC(=O)N[C@@H](COCc1ccccc1)C(=O)Nc1ccc(Oc2ccc(Cl)cc2)cc1` [Compound 209, (S)-3-(benzyloxy)-N-(4-(4-chlorophenoxy)phenyl)-2-(3-(dimethylamino)propanamido)propanamide] was run?
Answer: 6.00 to 6.52

Question: `O=C(CN1CCOCC1)N[C@@H](COCc1ccc(F)cc1)C(=O)Nc1ccc(Oc2ccc(F)cc2)cc1` [Compound 210, (S)-3-(4-fluorobenzyloxy)-N-(4-(4-fluorophenoxy)phenyl)-2-(2-morpholinoacetamido)propanamide] was tested. Which pIC50 did it give?
Answer: ≥ 6.52

Question: With `O=C(Cc1c[nH]cn1)N[C@@H](COCc1ccccc1)C(=O)Nc1ccc(OCc2ccccc2)cc1` [Compound 211, (S)-2-(2-(1H-imidazol-4-yl)acetamido)-3-(benzyloxy)-N-(4-(benzyloxy)phenyl)propanamide] as the compound, how does the pIC50 read?
Answer: ≥ 6.52
